≈ marks a conversion by molar mass, not a printed value. Read-outs that look alike come from different tables or passages of the source.
How the values were obtained:
[1] = test system: C. albicans CaCi-8; assay: Secondary assay 1: CaCi-8 with 8 µg/mL fluconazole (Alamar Blue growth); format: cell-based, Candida albicans; settings: for IC50: Candida albicans; for CaCi-8 IC50: 37 °C, 48 hours, with test compound and 8 µg/mL (26 µM) fluconazole, average of at least three independent experiments in duplicate, inactive = negligible activity at concentrations below 26 µM
Description: All of the compounds prepared above were evaluated for their ability to chemosensitize the C. albicans test strains CaCi-2 and CaCi-8 towards fluconazole. […] The DMSO/fluconazole combination served as an internal control. […]
(1/OD measured) × (desired final volume of inoculum) × 0.3 = volume of fungal culture (µL) to add to desired volume of growth medium. When added to media in wells, this yields a calculated starting OD of the fungal inoculum of 0.00015. […]
3) Use a Thermo Combi nL to dispense 20 µL/well of assay media into all wells. […]
EnVision (Perkin Elmer) plate reader setup: Ex 544 nm, Em 590 nm, bandwidth 12 nm, top read.
Secondary assay 1: CaCi-8 with 8 µg/mL fluconazole […]
35808016); geldanamycin (AG Scientific Catalog no. […]
PBS w/o calcium and magnesium (Cellgro Catalog no. 21-040-CV)
(§1) Synthetic defined growth medium
(§2) RPMI 1640 medium, (powder without sodium bicarbonate; Invitrogen Catalog no. […]
no. 028K0760); glucose 40% (w/v) in water (Sigma Catalog no. G-5400); MOPS buffer […]
1) Prepare 1× RPMI medium by dissolving 10.4 g powdered medium in 800 mL […]
(§3) 2) Add 34.52 g MOPS. While stirring, adjust pH to 7.0 with 10 N NaOH.
(§4) 3) Add 10 mL uridine solution, 50 mL glucose solution, adjust final volume to 1000 […]
Test strain: C. albicans CaCi-8
1) Inoculate 500 µL of strain from cryopreserved stock into a 250 mL shaker flask containing 30 mL growth medium. Shake at 30 °C overnight (16 hours).
2) Read OD 600 of 1 mL of fungal culture in a cuvette using a standard optical density reader (Eppendorf BioPhotometer Plus), with growth medium as a […]
3) Dilute to a desired volume of fungal inoculum according to following formula: […]
1) Add fluconazole stock solution to fungal inoculum to achieve 8 µg/mL.
2) Add Pen/Strep to media to 1% concentration.
4) Dispense geldanamycin in positive control wells using Thermo Combi nL for a final concentration of 3 µM.
5) Then, pin 100 nL of test compound from compound plates into assay plates using a CyBi-Well pin tool.
6) Dispense 20 µL/well of culture into the assay media in all wells.
7) Incubate the plates in a humidified (90% humidity) Liconic incubator at 37 °C without agitation for 48 hours.
8) Dilute Alamar Blue 1:40 in Ca/Mg-free PBS.
9) To all plates, add 5 µL/well of the diluted Alamar Blue to plates to a final dilution […]
10) Incubate the plates for 2 hours. […]

[2] = Secondary assay 3: fibroblast toxicity; format: cell-based; settings: mouse, NIH-3T3 fibroblasts, murine 3T3 fibroblasts
Description: 11) Read relative fluorescence intensity (RFU) of wells on a standard plate reader as […]
measure of relative fungal growth. EnVision (Perkin Elmer) plate reader settings: […]
Secondary assay 3: fibroblast toxicity
Clear, flat-bottom, black, 384-well plates (Corning Catalog no. 3712BC Lot no.
35808016); geldanamycin (AG Scientific Catalog no. G-1047) 15 mM stock solution in […]
DMSO; fluconazole (Sequoia Research Ltd.) 2 mg/mL stock solution in PBS; Alamar […]
Blue (AG Scientific Catalog no. DAL1100, Lot no. 151016SA); PBS w/o calcium and […]
magnesium (Cellgro Catalog no. 21-040-CV)
Optimem medium (Invitrogen Catalog no. 31985-070; Lot no. 548536); 2.5% (v/v) fetal […]
bovine serum (Hyclone Catalog no.30071.03; Lot no. ARF26748); 1% (v/v) Pen/Strep […]
Test strain: NIH-3T3 mammalian fibroblasts (ATCC CRL No. 1658) […]
1) Plate cells in 384-well plates at 6,000 cells/well in 20 µL assay medium.
2) Incubate plates overnight at 37 °C under 5% CO2.
1) After overnight culture, pin compounds into wells at 100 nL/well using the CyBio […]
CyBi-Well pinning instrument.
2) After pinning compounds, add 20 µL of assay medium supplemented with […]
fluconazole to each well. […]
6) Read the relative fluorescence intensity (RFU) of wells on a standard plate reader as a measure of relative cell growth. EnVision (Perkin Elmer) plate reader […]
setup: Ex 544 nm, Em […], bandwidth12 nm, top read.

[3] = test system: C. albicans CaCi-2; assay: Primary screen and dose-response retest: CaCi-2 with 8 µg/mL fluconazole (Alamar Blue growth); format: cell-based, Candida albicans; settings: for IC50: Candida albicans, CACI2
Description: All of the compounds prepared above were evaluated for their ability to chemosensitize the C. albicans test strains CaCi-2 and CaCi-8 towards fluconazole. […] The DMSO/fluconazole combination served as an internal control.
Protocols for cellular assays
Primary screen and dose-response retest: CaCi-2 with 8 µg/mL fluconazole […]
Clear, flat-bottom, black, 384-well plates (Corning Catalog no. 3712BC; Lot no. […]
DMSO; Fluconazole (Sequoia Research Products Ltd) 2 mg/mL stock solution in PBS; […]
(AG Scientific Catalog no. DAL 1100; Lot no.151016SA); PBS without calcium and magnesium (Cellgro Catalog no. 21-040-CV)
as §1, §2
no. 028KO760); Glucose 40% (w/v) in water (Sigma Catalog no. G-5400); MOPS buffer […]
1) Prepare 1× RPMI medium by dissolving 10.4 grams powdered medium in 800 […]
as §3, §4
Test Strain: C. albicans CaCi-2
1) Inoculate 500 µL of strain from cryopreserved stock into a 250 mL shaker flask containing 30 mL growth medium. Shake at 30 °C overnight.
2) Read OD 600 of 1 mL fungal culture in a cuvette using a standard optical density reader (Eppendorf BioPhotometer Plus), with growth medium as a background […]
3) Dilute to desired volume of fungal inoculums according to the following formula:
(1/OD measured) × (desired final volume of inoculum) × 0.3 = volume of fungal culture (µL) to add to desired volume of growth medium. When added to media in wells, this yields a calculated starting OD of the fungal inoculum of 0.00015.
1) Add fluconazole stock solution to fungal inoculum to achieve a final concentration […]
2) Add Pen/Strep at 0.1 mL per 10 mL media (1% v/v).
3) Use a Thermo Combi nL to dispense 20 µL/well of assay media into all wells.
4) Pin 25 nL test compound from compound plates into assay plates using CyBi- […]
5) Dispense 20 µL/well of culture into the assay media in all wells.
6) Incubate plates in a humidified (90% humidity) Liconic incubator at 37 °C without […]
7) Dilute Alamar Blue Reagent 1:40 in Ca/Mg-free PBS.
8) To all plates, add 5 µL/well of the diluted Alamar to a final dilution factor of 1:200.
9) Incubate the plates for an additional 2 hours.
10) Read the relative fluorescence intensity (RFU) of wells on a standard plate reader as a measure of relative fungal growth. EnVision (Perkin Elmer) plate reader setup: Ex 544 nm, Em 590 nm, bandwidth 12 nm, top read. […]

[4] = Solubility in PBS; format: physicochemical; settings: aqueous buffer
[5] = test system: CaCi-8; set-up: method as in PMID 8161633; settings: CaCi-8 clinical isolate; cited from earlier work
[6] = test system: CaCi-2; set-up: method as in PMID 8161633; settings: CaCi-2 clinical isolate; cited from earlier work
[7] = CACI8, 48 h, read-out: CaCi-8 IC50
[8] = 37 °C, 48 hours, with test compound and 8 µg/mL (26 µM) fluconazole, average of at least three independent experiments in duplicate, inactive = negligible activity at concentrations below 26 µM

| Compound | IC50 [1, 7] [µM] | IC50 [3, 8] [µM] | CaCi-8 IC50 [1] | CaCi-2 IC50 [3, 8] | further results |
| --- | --- | --- | --- | --- | --- |
| COC(=O)Cn1nc(-c2ccccc2)c2ccccc21 [Compound 1] | 3.5 ± 1.9 | 2.2 ± 1 | – | – | IC50 ([1]; CACI8, read-out: CaCi-8 IC50): 2.3 µM; IC50 at 48 h [2]: > 26 µM; IC50 ([3]; commercial sample, hit revalidation, with 8 µg/mL fluconazole): 0.8 µM; solubility [4]: 79 µM (≈ 21 µg/mL) |
| COC(=O)Cn1nc(-c2ccccc2)c2cc(C)ccc21 [Compound 11] | 8.2 ± 3.2 | 5.2 ± 2.2 | – | – | – |
| COC(=O)Cn1nc(-c2ccccc2)c2cc(OC)ccc21 [Compound 12] | 22.1 ± 6.2 | 14.9 ± 5.7 | – | – | – |
| COC(=O)Cn1nc(-c2ccccc2)c2cc(F)ccc21 [Compound 13] | – | 11.2 ± 7.2 | inactive | – | – |
| COC(=O)Cn1nc(-c2ccccc2)c2cc(Cl)ccc21 [Compound 14] | – | – | inactive | inactive | – |
| COC(=O)Cn1nc(-c2ccccc2)c2ccc(C)cc21 [Compound 15] | – | 5.9 ± 3.1 | inactive | – | – |
| COC(=O)Cn1nc(-c2ccccc2)c2ccc(OC)cc21 [Compound 16] | 12.4 ± 0.5 | 9.5 ± 2.5 | – | – | – |
| COC(=O)Cn1nc(-c2ccccc2)c2ccc(Cl)cc21 [Compound 17] | 8.4 ± 0.5 | 4 ± 1.3 | – | – | – |
| COC(=O)Cn1nc(-c2ccccc2)c2ccc(C(F)(F)F)cc21 [Compound 18] | – | – | inactive | inactive | – |
| COC(=O)Cn1nc(-c2ccccc2)c2cccc(C(F)(F)F)c21 [Compound 19] | – | – | inactive | inactive | – |
| COC(=O)Cn1nc(-c2ccccc2)c2cccnc21 [Compound 20] | – | – | inactive | inactive | – |
| COC(=O)Cn1ncc2ccccc21 [Compound 21] | – | – | inactive | inactive | – |
| CCc1nn(CC(=O)OC)c2ccccc12 [Compound 22] | – | – | inactive | inactive | – |
| COC(=O)Cn1nc(C(C)(C)C)c2ccccc21 [Compound 23] | – | – | inactive | inactive | – |
| COC(=O)Cn1nc(C2CC2)c2ccccc21 [Compound 24] | – | – | inactive | inactive | – |
| COC(=O)Cn1nc(C2CCCCC2)c2ccccc21 [Compound 25] | 6 ± 1.7 | 2.3 ± 0.3 | – | – | – |

| Compound | IC50 [1, 7] [µM] | IC50 [3, 8] [µM] | CaCi-8 IC50 [1] | CaCi-2 IC50 [3, 8] | further results |
| --- | --- | --- | --- | --- | --- |
| COC(=O)Cn1nc(-c2cccnc2)c2ccccc21 [Compound 26] | – | – | inactive | inactive | – |
| COC(=O)Cn1nc(-c2cncnc2)c2ccccc21 [Compound 27] | 21.1 ± 3.3 | – | – | inactive | – |
| COC(=O)Cn1nc(-c2cnco2)c2ccccc21 [Compound 28] | – | – | inactive | inactive | – |
| COC(=O)Cn1nc(-c2cscn2)c2ccccc21 [Compound 29] | – | 12.9 ± 1.7 | inactive | – | – |
| COC(=O)Cn1nc(-c2ccc(C)cc2)c2ccccc21 [Compound 30] | 19.5 ± 14.2 | 4.8 ± 2.5 | – | – | – |
| COC(=O)Cn1nc(-c2ccc(OC)cc2)c2ccccc21 [Compound 31] | 14.1 ± 6.4 | 4.2 ± 1.7 | – | – | – |
| COC(=O)Cn1nc(-c2ccc(F)cc2)c2ccccc21 [Compound 32] | 12.3 ± 3.9 | 8.3 ± 2.8 | – | – | – |
| COC(=O)Cn1nc(-c2ccc(C(F)(F)F)cc2)c2ccccc21 [Compound 33] | – | > 26 | inactive | inactive | – |
| COC(=O)Cn1nc(-c2ccc(C#N)cc2)c2ccccc21 [Compound 34] | 20.5 ± 0.3 | > 26 | – | inactive | – |
| COC(=O)Cn1nc(-c2cccc(C)c2)c2ccccc21 [Compound 35] | 1.9 ± 0.9 | 1.1 ± 0.6 | – | – | – |
| COC(=O)Cn1nc(-c2cccc(N(C)C)c2)c2ccccc21 [Compound 37] | 2 ± 0.2 | 0.8 ± 0.1 | – | – | – |
| COC(=O)Cn1nc(-c2cccc(F)c2)c2ccccc21 [Compound 38] | 4.2 ± 4.1 | 1.7 ± 0.4 | – | – | – |
| COC(=O)Cn1nc(-c2ccccc2C)c2ccccc21 [Compound 39] | 7.8 ± 2.6 | 5.3 ± 0.5 | – | – | – |
| COC(=O)Cn1nc(-c2ccccc2OC)c2ccccc21 [Compound 40] | 11.4 ± 1.7 | 9.3 ± 3.6 | – | – | – |
| COC(=O)Cn1nc(-c2cc(OC)cc(OC)c2)c2ccccc21 [Compound 41] | – | – | inactive | inactive | – |
| OC(Cn1cncn1)(Cn1cncn1)c1ccc(F)cc1F [fluconazole] | – | – | – | – | minimum inhibitory concentration (MIC) [5]: 8 µg/mL (≈ 26.1 µM); minimum inhibitory concentration (MIC) [6]: 2 µg/mL (≈ 6.53 µM) |

Reference: article PMC3740683, “ML212: A small-molecule probe for investigating fluconazole resistance mechanisms in Candida albicans” (Beilstein Journal of Organic Chemistry, 2013)
